# Counter-ions that a name gives are not always drawn.
# What was measured:
# [1] = tested on: Staphylococcus aureus MW2 delta-mecA (mecA-); assay: IC50 (growth, competition assay); details: cefoxitin: subinhibitory
# Summary of the method: (§1)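 Signals from DsRed (540/590) and GFP (485/520) were scaled on every plate between single-strain control medians, with No Treatment then set to 0.5. The cells were a 1:1 mix of pre-induced fluorescent S. aureus MW2 strains with and without the resistance gene, grown unshaken for 20 h at 37 °C and 90% humidity in LB in 1536-well plates under a subinhibitory drug dose set each day. Each strain's IC50 was defined as the dose halving the No Treatment signal, or the maximal signal.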
# [2] = tested on: Staphylococcus aureus MW2 (mecA+); assay: IC50 (growth, competition assay); details: cefoxitin: subinhibitory
# Summary of the method: as §1
Compound,IC50 ([1]; fluorescent label: DsRed) [µM],IC50 ([1]; fluorescent label: GFP) [µM],IC50 ([2]; fluorescent label: DsRed) [µM],IC50 ([2]; fluorescent label: GFP) [µM]
CCOC(=O)C1=C(C)NC(C)=C(C(=O)OC)C1c1cccc(Cl)c1Cl (configuration not stated) [PLENDIL],< 9.85,< 9.85,29.9,30
CC1=CC(=O)c2c(O)cccc2C1=O [PLUMBAGIN],< 9.85,< 9.85,18,38.3
COc1ccc(Cl)cc1NC(=O)Nc1cc(C)nc2ccccc12 [PQ 401],10.6,12.3,24.3,17.9
NCc1ccccc1CC(=O)N[C@@H]1C(=O)N2C(C(=O)O)=C(CSc3nnnn3CC(=O)O)CS[C@H]12 [PRECEF],< 9.85,< 9.85,53.1,44.7
CCOC(=O)c1ccc(N2NC(=O)C(=Cc3ccc([N+](=O)[O-])o3)C2=O)cc1 [PYR-41],24.1,19,58.8,79.3
Nc1ccc(/N=N/c2ccccc2)c(N)n1 [PYRIDIUM],> 150,> 150,> 150,> 150
CCn1cc(C(=O)O)c(=O)c2cc(F)c(N3CCN(C)CC3)cc21 [Pefloxacin Mesylate Dihydrate],< 9.85,< 9.85,< 9.85,< 9.85
N=C(N)c1ccc(OCCCCCOc2ccc(C(=N)N)cc2)cc1 [Pentamidine HCl],23.5,16.8,37.3,46.4
OCCN1CCN(CCCN2c3ccccc3Sc3ccc(Cl)cc32)CC1 [Perphenazine],27.1,21.1,70.8,65.7
CC[C@H](C)C(=O)O[C@H]1C[C@H](O)C=C2C=C[C@H](C)[C@H](CC[C@@H](O)C[C@@H](O)CC(=O)O)[C@H]21 [Pravastatin sodium],< 9.85,< 9.85,28.8,27.8
CN1CCN(CCCN2c3ccccc3Sc3ccc(Cl)cc32)CC1 [Prochlorperazine dimaleate],21.5,18,56.2,54.5
Cc1oc(=O)oc1CN1CCN(c2cc3c(cc2F)c(=O)c(C(=O)O)c2n3C(C)S2)CC1 (configuration not stated) [QUISNON],< 9.85,< 9.85,< 9.85,< 9.85
O=c1c(O)c(-c2ccc(O)c(O)c2)oc2cc(O)cc(O)c12 [Quercetin dihydrate (Sophoretin)],18.7,11.1,58.2,53.4
O=c1c(O)c(-c2ccc(O)c(O)c2)oc2cc(O)cc(O)c12 [Quercetin dihydrate],18.4,10.4,56.9,55.7
CN(C)C(=S)SSC(=S)N(C)C [REZIFILM],18.2,23.6,33.4,63.6
CCCCCCCCCCCCC[N+](C)(C)Cc1ccccc1 [ROCCAL],< 9.85,< 9.85,< 9.85,< 9.85
CO/N=C(\C(=O)N[C@@H]1C(=O)N2C(C(=O)O)=C(CSc3nc(=O)c(O)nn3C)CS[C@H]12)c1csc(N)n1 [ROCEPHIN],< 9.85,< 9.85,> 150,> 150
C=C1c2cccc(O)c2C(=O)C2=C(O)[C@]3(O)C(=O)C(C(N)=O)=C(O)[C@@H](N(C)C)[C@@H]3[C@@H](O)[C@H]12 [RONDOMYCIN],< 9.85,< 9.85,< 9.85,< 9.85
C=C1C(=O)[C@]23[C@H](CC[C@@H]1[C@@H]2O)[C@]12CO[C@@]3(O)[C@H](O)[C@H]1C(C)(C)CC[C@@H]2O [RUBESCENSIN A],17.9,17.2,36.3,84.5
CC[C@H]1OC(=O)[C@H](C)[C@@H](O[C@H]2C[C@@](C)(OC)[C@@H](O)[C@H](C)O2)[C@H](C)[C@@H](O[C@@H]2O[C@H](C)C[C@H](N(C)C)[C@H]2O)[C@](C)(O)C[C@@H](C)/C(=N\OCOCCOC)[C@H](C)[C@@H](O)[C@]1(C)O [RULIDE],< 9.85,< 9.85,< 9.85,< 9.85
CC[C@@]1([C@H]2O[C@H]([C@H]3O[C@@](O)(CO)[C@H](C)C[C@@H]3C)C[C@H]2C)CC[C@H]([C@@]2(C)CC[C@]3(C[C@H](O)[C@@H](C)[C@@H]([C@H](C)[C@H](OC)[C@@H](C)C(=O)O)O3)O2)O1 [RUMENSIN],< 9.85,12.5,< 9.85,< 9.85
FC(F)(F)c1ccc(Nc2nc3ccc(Oc4ccnc(-c5ncc(C(F)(F)F)[nH]5)c4)cc3[nH]2)cc1 [Raf265 derivative],< 9.85,< 9.85,19.6,23.4
C=C[C@]1(C)C[C@@H](OC(=O)CS[C@@H]2C[C@H]3CC[C@@H](C2)N3C)[C@]2(C)[C@H](C)CC[C@]3(CCC(=O)[C@H]32)[C@@H](C)[C@@H]1O [Retapamulin],< 9.85,< 9.85,< 9.85,< 9.85
Cc1cc2nc3c(=O)[nH]c(=O)nc-3n(C[C@H](O)[C@H](O)[C@H](O)CO)c2cc1C [Riboflavin (Vitamin B2)],> 150,> 150,> 150,> 150
CO[C@H]1/C=C/O[C@@]2(C)Oc3c(C)c(O)c4c(c3C2=O)C2=NC3(CCN(CC(C)C)CC3)NC2=C(NC(=O)/C(C)=C\C=C\[C@H](C)[C@H](O)[C@@H](C)[C@@H](O)[C@@H](C)[C@H](OC(C)=O)[C@@H]1C)C4=O [Rifabutin],< 0.498,< 0.498,< 0.498,< 0.498
CO[C@H]1/C=C/O[C@@]2(C)Oc3c(C)c(O)c4c(O)c(c(/C=N/N5CCN(C6CCCC6)CC5)c(O)c4c3C2=O)NC(=O)/C(C)=C\C=C\[C@H](C)[C@H](O)[C@@H](C)[C@@H](O)[C@@H](C)[C@H](OC(C)=O)[C@@H]1C [Rifapentine],< 0.498,< 0.498,< 0.498,< 0.498
CO[C@H]1/C=C/O[C@@]2(C)Oc3c(C)c(O)c4c(O)c(c5c(nc6cc(C)ccn65)c4c3C2=O)NC(=O)/C(C)=C\C=C\[C@H](C)[C@H](O)[C@@H](C)[C@@H](O)[C@@H](C)[C@H](OC(C)=O)[C@@H]1C [Rifaximin (Xifaxan)],< 0.498,< 0.498,< 0.498,< 0.498
Cc1nc2sccn2c(=O)c1CCN1CCC(=C(c2ccc(F)cc2)c2ccc(F)cc2)CC1 [Ritanserin],17.3,29,57.5,56.9
